From patent US4742155A, “Plipastatin and method for preparation thereof” (Zaidan Hojin Biseibutsu Kagaku Kenkyu Kai, priority 1984, dated 1988)
Entries after “also recorded” stand apart in the source; their conditions may differ. Bridge positions count the residues as written; N and C are the ends. Square brackets hold non-standard residues; d marks the D form. Peptide text beside a SMILES is read from it. * marks the point of attachment. Hexadecanoyl(3R-OH) = CCCCCCCCCCCCC[C@@H](O)CC(=O)*; d(aThr) = C[C@@H](O)[C@@H](N)C(=O)O; dOrn = NCCC[C@@H](N)C(=O)O

Key:
[1] = system: PCA (Passive Cutaneous Anaphylaxis) reactions in rats of the S-D strain; experiment: PCA (Passive Cutaneous Anaphylaxis) reaction, Evans blue patch; assay type: in vivo; details: for Development of blue patch +, number of animals in a group of five / Development of blue patch -, number of animals in a group of five / Development of blue patch ±, number of animals in a group of five: 150 μl intradermal 5 min before challenge
Procedure: The experiment described below was accomplished in accordance with conventional methods. (Reference: J. Immunology, 106, 1002-1011, 1971). Rats were sensitized with egg albumin antigen to obtain an anti-serum. The rats of the S-D strain (male, 8 wk of age) were passively sensitized by intradermal injection of 50 μl of the thus obtained anti-egg albumin serum on their backs. Forty-eight hours later, each rat was challenged by the intravenous injection of physiological saline containing egg albumin (2.5 mg) plus Evans blue (2.5 mg). Sixty minutes after the injection, any development of blue dye patch due to the extravasation of Evans blue at the sensitized site was checked. Five minutes before the challenge, the test compound (150 μl) was intradermally injected at the sensitized site. DSCG (disodium cromoglycate) was used as a control.

phospholipase A2 = molecular target: phospholipase A2
Procedure: (§1) The measurement of the antiphospholipase D activity is carried out by the method of Okuyama et al. described in A. Okuyama, T. Nishikiori, T. Aoyagi and H. Umezawa, Biochemistry international, 4, 417, 1982. Dipalmitoylphosphatidyl choline (DPC) (200 mM) and cholin-methyl-^14 C-DPC (4×10^4 dpm) are suspended ultrasonically in 390 μl of 50 mM tris-hydrochloric acid buffer (pH 5.7) containing 1 mM calcium chloride. To the resulting suspension is added 10 μl of a solution containing the sample to be tested. To the resulting mixture is added 100 μl of a solution of commercially available phospholipase D (derived from cabbage) and reacted at 37° C. for 20 minutes. The reaction is quenched by addition of 1.5 ml of a mixture of chloroform, methanol and conc. hydrochloric acid (2:1:0.02 v/v). To this mixture is then added 1 ml of 50% methanol containing […] potassium chloride and the mixture is stirred. Two layers are separated by centrifugation. The radioactivity (a) of choline liberated from the upper layer by the enzyme is measured. Also, the radioactivity (b) of the buffer free from the sample is measured as a blank test. The percentage inhibition of phospholipase activity is calculated according to the following formula: [(b-a)/b]×100.
(§2) IC50 values correspond to the concentration of the samples giving a 50% inhibition.
(§3) The measurement of the inhibition of phospholipase was accomplished by the method of Okuyama et al. set forth above.

phospholipase C = molecular target: phospholipase C
Procedure: as §1, §2, §3

[2] = molecular target: phospholipase D (derived from cabbage); experiment: Inhibition of phospholipase D (antiphospholipase D activity, 14C-DPC); assay type: biochemical; details: Table 2
Text: The monitoring of the production of Plipastatin through the cultivation and purification steps is accomplished by measuring the antiphospholipase D activity in accordance with the following method.
Two layers are separated by centrifugation.

[3] = system: delayed-type hypersensitivity (DTH) in CDF1 mice; experiment: Cell-mediated immunity: delayed-type hypersensitivity (DTH) to SRBC, footpad swelling; assay type: in vivo; details: for Thickness of footpad: 24 h after secondary SRBC challenge, CDF1 mice; for Percentage with respect to the control: footpad swelling, control = 100%
Text: This experiment illustrates the effects on the cell-mediated immunity in normal mice.
The activities of Plipastatin A1 and B1 on cell-mediated immunity were studied in terms of delayed-type hypersensitivity (DTH) caused by inoculating mice with antigenic sheep red blood cells (SRBC) in one footpad (Reference: J. Exp. Med., 139, 1529-1539, 1974).
CDF1 mice (female, 8 week of age) were inoculated intravenously with a suspension of 5×10^5 SRBC in physiological saline. At the same time, a single dose of an aqueous solution of 5 mg/Kg or 0.5 mg/Kg of Plipastatin A1 or B1 was administered intraperitoneally to the mice. Four days after the injection, the mice were subjected to the secondary challenge by subcutaneous injection of the other footpad with a suspension of 10^8 SRBC in physiological saline. Twenty-four hours later, the degree of footpad swelling (increasing in the thickness of the footpad) was measured with a caliper. The cell-mediated immunity suppressive effects of the test compounds were determined by comparing the degree of footpad swelling in the treated animals with the degree of footpad swelling (100%) in untreated, control animals that were subcutaneously injected in their footpads with an aqueous solution of SRBC in physiological saline in stead of the test compounds.

[4] = system: Con A-stimulated T-lymphocytes; experiment: Reaction of T-lymphocyte blastogenesis, [3H]-thymidine uptake; assay type: cell-based, BALB/c mice; details: 100 μg/ml (given for Plipastatin A1; not given for B1); 5 μg/ml Con A, 72 hours
Procedure: (§4) This experiment illustrates the suppressive effects of Plipastatin on the reaction of lymphocyte blastogenesis.
(§5) The reaction of lymphocyte blastogenesis was evaluated in terms of the incorporation of [^3 H]-thymidine in the DNA synthesis by both T-cells and B-cells stimulated with concanavalin A (hereunder referred to as Con A) and lipopolysaccharide of E. coli 055:B5. (Reference "Meneki Jikken Sosaho", or "Immunological Experiments Manual", pp. 2267-2276, The Japanese Society for Immunology).
(§6) In the reaction of T-lymphocyte blastogenesis, the T-cells were obtained by passing spleen cells of BALB/c mice (19 weeks old) through a nylon column to remove adsorptive cells and by then cultivating the resulting spleen cells in a plastic Petri dish for one hour to eliminate the remaining adsorptive cells. The cultivation of the T-cells was conducted in wells of a Falcon microtest plate using RPMI 1640 medium containing 20% fetal bovine serum, […] of Hepes, 100 μg/ml of streptomycin and 100 U/ml of penicillin G. The T-lymphocytes (1×10^5), 5 μg/ml of Con A and PLIPASTATIN A1 or B1 were added in that order to the wells and said medium was then added to the wells to make a total of 0.2 ml. The resulting mixture was incubated for 72 hours. The mixture was pulse-labeled with [^3 H]-thymidine at 8 hours before terminating the cultivation. […]

[5] = system: LPS-stimulated B-lymphocytes; experiment: Reaction of B-lymphocyte blastogenesis, [3H]-thymidine uptake; assay type: cell-based, BALB/c mice; details: 100 μg/ml (given for Plipastatin A1; not given for B1); 100 μg/ml LPS, 72 hours
Procedure: as §4, §5, §6

Solubility = assay type: physicochemical; details: potassium salts (Table 1)
Procedure: (All measurements were carried out using potassium salts of the compounds unless otherwise specified.)

[6] = mouse, in vivo, ip

| Molecule | Development of blue patch +, number of animals in a group of five ([1]; Conc. 59 μM) | Development of blue patch -, number of animals in a group of five ([1]; Conc. 59 μM) | Development of blue patch ±, number of animals in a group of five ([1]; Conc. 59 μM) | Development of blue patch +, number of animals in a group of five ([1]; Conc. 590 μM) | Development of blue patch -, number of animals in a group of five ([1]; Conc. 590 μM) | Development of blue patch ±, number of animals in a group of five ([1]; Conc. 590 μM) | Degree of inhibition, IC50, phospholipase A2 (phospholipase A2) [µg/mL] | Degree of inhibition, IC50, phospholipase C (phospholipase C) [µg/mL] | Degree of inhibition, IC50, phospholipase D [2] [µg/mL] | Thickness of footpad ([3]; dose 0.5 mg/Kg single i.p.) | Percentage with respect to the control ([3]; dose 0.5 mg/Kg single i.p.) [%] | Thickness of footpad ([3]; dose 5 mg/Kg single i.p.) | Percentage with respect to the control ([3]; dose 5 mg/Kg single i.p.) [%] | Suppression of uptake of [3H]-thymidine into Con A-stimulated T-lymphocytes [4] [%] | Suppression of uptake of [3H]-thymidine into LPS-stimulated B-lymphocytes [5] [%] | Solubility (Solubility) | also measured |
| --- | --- | --- | --- | --- | --- | --- | --- | --- | --- | --- | --- | --- | --- | --- | --- | --- | --- |
| O=C([O-])c1cc(=O)c2c(OCC(O)COc3cccc4oc(C(=O)[O-])cc(=O)c34)cccc2o1.[Na+].[Na+] [DSCG, disodium cromoglycate, reference compound] | 0 | 4 | 1 | 0 | 4 | 1 | – | – | – | – | – | – | – | – | – | – | – |
| CCCCCCCCCCCCC[C@@H](O)CC(=O)N[C@@H](CCC(=O)O)C(=O)N[C@H](CCCN)C(=O)N[C@H]1Cc2ccc(cc2)OC(=O)[C@H]([C@@H](C)CC)NC(=O)[C@@H](Cc2ccc(O)cc2)NC(=O)[C@H](CCC(N)=O)NC(=O)[C@@H]2CCCN2C(=O)[C@@H](C(C)C)NC(=O)[C@H](CCC(=O)O)NC(=O)[C@@H]([C@@H](C)O)NC1=O [Plipastatin B1] ({Hexadecanoyl(3R-OH)}-E[dOrn]Y[d(aThr)]E[dV]PQ[dY]I; ester 3-C) | – | – | – | – | – | – | 5.2 | 3.6 | 2.8 | 97 ± 44 × 10^-2 mm | 99 | 57 ± 31 × 10^-2 mm | 58 | 54 | 20 | Soluble in water, methanol, ethanol, and dimethyl sulfoxide; also recorded: Insoluble in organic solvents such as acetone, ethyl acetate, | LD50 [6]: 250 to 500 mg/kg |
| Plipastatin A1 | 0 | 4 | 1 | 0 | 5 | 0 | 4.3 | 1.9 | 2.1 | 63 ± 25 × 10^-2 mm | 64 | 48 ± 16 × 10^-2 mm | 49 | 52 | 15 | Soluble in water, methanol, ethanol, and dimethyl sulfoxide; also recorded: Insoluble in organic solvents such as acetone, ethyl acetate, | Development of blue patch +, number of animals in a group of five ([1]; Conc. 5.9 μM): 2; Development of blue patch -, number of animals in a group of five ([1]; Conc. 5.9 μM): 0; Development of blue patch ±, number of animals in a group of five ([1]; Conc. 5.9 μM): 3; Suppressive effects on PCA reactions ([1]; intradermal injections of 590 and 59 μM): comparable to those of DSCG |
| Plipastatin A2 | – | – | – | – | – | – | 3.4 | 4.0 | 3.8 | – | – | – | – | – | – | Soluble in water, methanol, ethanol, and dimethyl sulfoxide; also recorded: Insoluble in organic solvents such as acetone, ethyl acetate, | – |
| Plipastatin B2 | – | – | – | – | – | – | 3.5 | 4.5 | 3.3 | – | – | – | – | – | – | Soluble in water, methanol, ethanol, and dimethyl sulfoxide; also recorded: Insoluble in organic solvents such as acetone, ethyl acetate, | – |
